Experimental data: US20050101595A1, “N-containing cycloalkyl-substituted amino-thiazole derivatives and pharmaceutical compositions for inhibiting cell proliferation and methods for their use” (PFIZER INC., priority 2003, published 2005)
Structures can show the parent of a compound that is named as a salt. Where two headings read alike, the source gives them in different places.

Legend:
HCT-116 cell line = test: Inhibition of cell growth, tetrazolium salt (MTT) assay; assay type: cell-based; settings: for IC50: Homo sapiens, HCT-116, 120 h, MTT, three to five days, read-out: HCT-116 IC50; for HCT-116 % Inhibition at 0.25 μM: 0.25 μM compound
Outline: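 HCT-116 cells in McCoy's 5A medium received compound 4 h after plating (0.5% v/v DMSO) and were incubated three to five days at 37° C, 5% CO2. MTT (0.2 mg/mL final) then added for 4 h; DMSO-solubilized formazan read at 540 nm against 0.5% DMSO-treated controls.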

CDK2/Cyclin A = CDK2/Cyclin A (Homo sapiens, UniProt P24941); test: Inhibition of CDK2/Cyclin A Retinoblastoma Kinase Activity; assay type: biochemical; settings: for Ki: apparent Ki, CDK2/proteolyzed cyclin A, Rb fragment substrate, 25 μM ATP; for CDK2 % Inhibition At 0.03 μM: Table 2
Outline: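 Radiometric filter-binding readout of phosphate transfer to an Rb substrate fragment by purified CDK2/truncated cyclin A at 10 or 19 nM. Run at pH 7.4 with 25 μM ATP, 30 °C, 60–75 min, linear rates; background without enzyme subtracted, Ki from competitive-inhibition models.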

[1] = target: human CDK4 and genetically truncated (1-264) cyclin D3 (Homo sapiens, UniProt P11802); test: Inhibition of CDK4/Cyclin D Retinoblastoma Kinase Activity; assay type: biochemical; settings: for Ki: apparent Ki, CDK4/truncated cyclin D3, Rb fragment substrate, 25 μM ATP
Outline: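 Apparent Ki values come from competitive or competitive tight-binding inhibition fits of background-corrected 32P/33P incorporation into His-tagged Rb fragment (386-928), captured on nitrocellulose. Reaction: 5 nM insect-cell-expressed human CDK4 with cyclin D3 (1-264), 25 μM ATP, pH 7.4 HEPES, 2% DMSO, 30° C., 20 min, extended to 60 min for tight-binding inhibitors.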

[2] = 0.1 μM compound, HCT-116, Table 4
[3] = 0.1 μM compound, HCT-116, Table 3

Chain of human CDK4 and genetically truncated (1-264) cyclin D3 (P11802 whole entry, the tested form may be a part): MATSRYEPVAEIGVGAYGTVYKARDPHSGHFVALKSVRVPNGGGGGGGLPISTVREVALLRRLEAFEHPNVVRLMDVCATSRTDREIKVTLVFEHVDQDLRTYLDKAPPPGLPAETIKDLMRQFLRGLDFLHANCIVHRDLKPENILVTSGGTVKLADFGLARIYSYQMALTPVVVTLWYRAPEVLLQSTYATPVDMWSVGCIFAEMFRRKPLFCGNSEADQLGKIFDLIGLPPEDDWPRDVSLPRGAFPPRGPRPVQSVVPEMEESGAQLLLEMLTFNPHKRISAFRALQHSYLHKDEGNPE
Chain of human CDK4 and genetically truncated (1-264) cyclin D3 (P30281 1-264 partner): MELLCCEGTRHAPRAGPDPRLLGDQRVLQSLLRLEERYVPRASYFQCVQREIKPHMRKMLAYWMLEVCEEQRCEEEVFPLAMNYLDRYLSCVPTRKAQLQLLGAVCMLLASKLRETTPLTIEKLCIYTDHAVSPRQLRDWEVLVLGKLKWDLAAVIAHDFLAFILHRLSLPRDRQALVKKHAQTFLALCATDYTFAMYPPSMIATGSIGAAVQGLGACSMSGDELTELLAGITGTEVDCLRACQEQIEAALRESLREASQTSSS

Nc1nc(NC2CCN(C(=O)c3ccc(Cl)cc3Cl)CC2)sc1C(=O)c1c(F)cccc1F [Example R107]
HCT-116 % Inhibition at 0.1 μM (HCT-116 cell line; HCT-116 cells, at 0.1 μM): 8%
HCT-116 5 Inhibition at 0.25 μM (HCT-116 cell line; HCT-116 cells): 48
CDK2 % Inhibition at 0.03 μM (CDK2/Cyclin A; at 0.03 μM): 44%
CDK4 % Inhibition at 0.03 μM ([1]; at 0.03 μM): 63%

CNc1ccccc1C(=O)N1CCC(Nc2nc(N)c(C(=O)c3c(F)cccc3F)s2)CC1 [Example R112]
HCT-116 % Inhibition at 0.1 μM (HCT-116 cell line; HCT-116 cells, at 0.1 μM): 39%
HCT-116 5 Inhibition at 0.25 μM (HCT-116 cell line; HCT-116 cells): 93
CDK2 % Inhibition at 0.03 μM (CDK2/Cyclin A; at 0.03 μM): 12%
CDK4 % Inhibition at 0.03 μM ([1]; at 0.03 μM): 21%

CC[C@H](NCCS(=O)(=O)N1CCC(Nc2nc(N)c(C(=O)c3c(F)cccc3F)s2)CC1)c1ccccc1 [Example K42, (4-Amino-2-{1-[2-(1S-phenyl-propylamino)-ethanesulfonyl]-piperidin-4-ylamino}-thiazol-5-yl)-(2,6-difluoro-phenyl)-methanone]
IC50 (HCT-116 cell line; first HCT-116 column (c4)): 50 nM
IC50 (HCT-116 cell line; second HCT-116 column (c5)): 150 nM
Ki (CDK2/Cyclin A): 1 nM
Ki [1]: 1.9 nM

Nc1nc(NC2CCN(S(=O)(=O)c3ccc(Cc4ncc[nH]4)nc3)CC2)sc1C(=O)c1c(F)cccc1F [Example I4, 1-(4-Amino-2-{1-[6-(1H-imidazol-2-ylmethyl)-pyridine-3-sulfonyl]-piperidin-4-ylamino}-thiazol-5-yl)-1-(2,6-difluoro-phenyl)-methanone Hydrochloride]
IC50 (HCT-116 cell line; first HCT-116 column (c4)): 1900 nM
IC50 (HCT-116 cell line; second HCT-116 column (c5)): 4700 nM
Ki (CDK2/Cyclin A): < 1 nM
Ki [1]: 1.8 nM

CC1(C)CN(CCCS(=O)(=O)N2CCC(Nc3nc(N)c(C(=O)c4c(F)cccc4F)s3)CC2)CCN1 [Example K14, 1-(4-Amino-2-{1-[3-(3,3-dimethylpiperazin-1-yl)propane-1-sulfonyl]-piperidin-4-ylamino}-thiazol-5-yl)-1-(2,6-difluoro-phenyl)-methanone.]
IC50 (HCT-116 cell line; first HCT-116 column (c4)): 3300 nM
IC50 (HCT-116 cell line; second HCT-116 column (c5)): > 5000 nM
Ki (CDK2/Cyclin A): 7.9 nM
Ki [1]: 2.9 nM

COc1ccc(CC(=O)N2CCC(Nc3nc(N)c(C(=O)c4c(F)cccc4F)s3)CC2)cc1OC [Example Q72]
HCT-116 % Inhibition at 0.1 μM (HCT-116 cell line; [2]): 8%
HCT-116 % Inhibition at 0.25 μM (HCT-116 cell line; HCT-116, Table 4): 29%
CDK2 % Inhibition at 0.03 μM (CDK2/Cyclin A; 0.03 μM compound, Table 4): 18%
CDK4 % Inhibition at 0.03 μM ([1]; 0.03 μM compound, Table 4): 43%

Nc1nc(NC2CCN(C(=O)NCCc3cccs3)CC2)sc1C(=O)c1c(F)cccc1F [Example O65]
HCT-116 % Inhibition at 0.25 μM (HCT-116 cell line; HCT-116, Table 2): 44%
CDK2 % Inhibition At 0.03 μM (CDK2/Cyclin A; 0.03 μM compound): 22%
CDK4 % Inhibition at 0.03 μM ([1]; 0.03 μM compound, Table 2): −7%

COc1ccccc1C(=O)N1CCC(Nc2nc(N)c(C(=O)c3c(F)cccc3F)s2)CC1 [Example Q15]
HCT-116 % Inhibition at 0.1 μM (HCT-116 cell line; [2]): 9%
HCT-116 % Inhibition at 0.25 μM (HCT-116 cell line; HCT-116, Table 4): 45%
CDK2 % Inhibition at 0.03 μM (CDK2/Cyclin A; 0.03 μM compound, Table 4): 25%
CDK4 % Inhibition at 0.03 μM ([1]; 0.03 μM compound, Table 4): 52%

Nc1nc(NC2CCN(S(=O)(=O)c3ccc(-c4ccccn4)s3)CC2)sc1C(=O)c1c(F)cccc1F [Example P45]
HCT-116 % Inhibition at 0.1 μM (HCT-116 cell line; [3]): 14%
HCT-116 % Inhibition at 0.25 μM (HCT-116 cell line; HCT-116, Table 3): 27%
CDK2 % Inhibition at 0.03 μM (CDK2/Cyclin A; 0.03 μM compound, Table 3): 65%
CDK4 % Inhibition at 0.03 μM ([1]; 0.03 μM compound, Table 3): 82%

Nc1nc(NC2CCN(S(=O)(=O)c3ccc(N4CCC(O)CC4)nc3)CC2)sc1C(=O)c1c(F)cccc1F [Example G9, 1-{4-Amino-2-[1-(4Hydroxy-3,4,5,6-tetrahydro-2H-[1,2′]bipyridinyl-5′-sulfonyl)-piperidin-4-ylamino]-thiazol-5-yl}-1-(2,6-difluoro-phenyl)-methanone]
IC50 (HCT-116 cell line; first HCT-116 column (c4)): 170 nM
IC50 (HCT-116 cell line; second HCT-116 column (c5)): 1800 nM
Ki (CDK2/Cyclin A): 0.52 nM
Ki [1]: 2.2 nM

Nc1nc(NC2CCN(S(=O)(=O)c3cccc4nsnc34)CC2)sc1C(=O)c1c(F)cccc1F [Example P62]
HCT-116 % Inhibition at 0.1 μM (HCT-116 cell line; [3]): 22%
HCT-116 % Inhibition at 0.25 μM (HCT-116 cell line; HCT-116, Table 3): 26%
CDK2 % Inhibition at 0.03 μM (CDK2/Cyclin A; 0.03 μM compound, Table 3): 74%
CDK4 % Inhibition at 0.03 μM ([1]; 0.03 μM compound, Table 3): 70%

COC(=O)[C@H](Cc1ccccc1)NC(=O)N1CCC(Nc2nc(N)c(C(=O)c3c(F)cccc3F)s2)CC1 [Example O78]
HCT-116 % Inhibition at 0.25 μM (HCT-116 cell line; HCT-116, Table 2): 47%
CDK2 % Inhibition At 0.03 μM (CDK2/Cyclin A; 0.03 μM compound): 25%
CDK4 % Inhibition at 0.03 μM ([1]; 0.03 μM compound, Table 2): 14%

Nc1nc(NC2CCN(C(=O)N3CCOCC3)CC2)sc1C(=O)c1c(F)cccc1F [Example R80]
HCT-116 % Inhibition at 0.1 μM (HCT-116 cell line; HCT-116 cells, at 0.1 μM): 0%
HCT-116 5 Inhibition at 0.25 μM (HCT-116 cell line; HCT-116 cells): 47
CDK2 % Inhibition at 0.03 μM (CDK2/Cyclin A; at 0.03 μM): 7%
CDK4 % Inhibition at 0.03 μM ([1]; at 0.03 μM): 37%

CC(=O)Nc1ccccc1C(=O)N1CCC(Nc2nc(N)c(C(=O)c3c(F)cccc3F)s2)CC1 [Example R111]
HCT-116 % Inhibition at 0.1 μM (HCT-116 cell line; HCT-116 cells, at 0.1 μM): 4%
HCT-116 5 Inhibition at 0.25 μM (HCT-116 cell line; HCT-116 cells): 52
CDK2 % Inhibition at 0.03 μM (CDK2/Cyclin A; at 0.03 μM): 11%
CDK4 % Inhibition at 0.03 μM ([1]; at 0.03 μM): 25%
